Experimental findings from patent US5821231A, “CS-1 peptidomimetics, compositions and methods of using same” (Cytel Corporation, priority 1995, dated 1998) are described below.

Square brackets hold non-standard residues; d marks the D form. Peptide text beside a SMILES is read from it. * marks the point of attachment. NHOctadecyl = CCCCCCCCCCCCCCCCCCN*; NMeF = CN[C@@H](Cc1ccccc1)C(=O)O; hPhe = N[C@@H](CCc1ccccc1)C(=O)O; NMeD = CN[C@@H](CC(=O)O)C(=O)O; X8 = CCCCCCCCCCCCCCCCCCO*; Morpholide = C1CN(*)CCO1; X7 = O=C(CO*)OCc1ccccc1; PhAc = O=C(Cc1ccccc1)*; ODecyl = CCCCCCCCCCO*; X1 = CCCCCCCCCCCCCCO*; X4 = CCN(CC)C(=O)CO*; OBn = c1ccc(CO*)cc1; X5 = CCCCCCCCCCCCO*; Ahx = NCCCCCC(=O)O; X6 = O=C(O)CO*

Chain of VLA-4 (P13612 34-1032): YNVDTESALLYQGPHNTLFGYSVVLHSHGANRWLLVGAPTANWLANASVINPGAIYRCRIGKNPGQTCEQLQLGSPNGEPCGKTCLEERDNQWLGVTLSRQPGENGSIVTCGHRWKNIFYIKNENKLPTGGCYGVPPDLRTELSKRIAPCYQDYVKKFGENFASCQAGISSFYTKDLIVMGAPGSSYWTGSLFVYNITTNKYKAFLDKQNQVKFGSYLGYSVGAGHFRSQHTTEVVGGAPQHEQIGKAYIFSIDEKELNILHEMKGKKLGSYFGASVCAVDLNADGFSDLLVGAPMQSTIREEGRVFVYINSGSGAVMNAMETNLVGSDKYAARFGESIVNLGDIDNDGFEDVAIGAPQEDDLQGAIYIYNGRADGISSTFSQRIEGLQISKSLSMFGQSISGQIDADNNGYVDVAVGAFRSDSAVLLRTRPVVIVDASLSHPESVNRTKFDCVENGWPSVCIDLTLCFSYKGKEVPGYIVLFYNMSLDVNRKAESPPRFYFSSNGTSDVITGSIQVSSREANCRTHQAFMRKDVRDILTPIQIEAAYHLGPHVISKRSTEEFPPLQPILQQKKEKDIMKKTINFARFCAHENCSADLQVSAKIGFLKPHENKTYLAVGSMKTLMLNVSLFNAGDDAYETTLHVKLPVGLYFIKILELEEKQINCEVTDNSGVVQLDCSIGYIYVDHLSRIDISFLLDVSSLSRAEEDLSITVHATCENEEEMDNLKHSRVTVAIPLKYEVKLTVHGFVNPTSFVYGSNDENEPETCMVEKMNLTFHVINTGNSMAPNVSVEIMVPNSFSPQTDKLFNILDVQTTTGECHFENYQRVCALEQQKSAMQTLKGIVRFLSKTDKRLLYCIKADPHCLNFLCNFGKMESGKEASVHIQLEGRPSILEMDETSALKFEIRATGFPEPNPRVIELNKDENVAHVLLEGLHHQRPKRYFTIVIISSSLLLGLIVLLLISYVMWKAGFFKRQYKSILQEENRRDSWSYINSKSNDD
Chain of VLA-4 (P05556 21-798): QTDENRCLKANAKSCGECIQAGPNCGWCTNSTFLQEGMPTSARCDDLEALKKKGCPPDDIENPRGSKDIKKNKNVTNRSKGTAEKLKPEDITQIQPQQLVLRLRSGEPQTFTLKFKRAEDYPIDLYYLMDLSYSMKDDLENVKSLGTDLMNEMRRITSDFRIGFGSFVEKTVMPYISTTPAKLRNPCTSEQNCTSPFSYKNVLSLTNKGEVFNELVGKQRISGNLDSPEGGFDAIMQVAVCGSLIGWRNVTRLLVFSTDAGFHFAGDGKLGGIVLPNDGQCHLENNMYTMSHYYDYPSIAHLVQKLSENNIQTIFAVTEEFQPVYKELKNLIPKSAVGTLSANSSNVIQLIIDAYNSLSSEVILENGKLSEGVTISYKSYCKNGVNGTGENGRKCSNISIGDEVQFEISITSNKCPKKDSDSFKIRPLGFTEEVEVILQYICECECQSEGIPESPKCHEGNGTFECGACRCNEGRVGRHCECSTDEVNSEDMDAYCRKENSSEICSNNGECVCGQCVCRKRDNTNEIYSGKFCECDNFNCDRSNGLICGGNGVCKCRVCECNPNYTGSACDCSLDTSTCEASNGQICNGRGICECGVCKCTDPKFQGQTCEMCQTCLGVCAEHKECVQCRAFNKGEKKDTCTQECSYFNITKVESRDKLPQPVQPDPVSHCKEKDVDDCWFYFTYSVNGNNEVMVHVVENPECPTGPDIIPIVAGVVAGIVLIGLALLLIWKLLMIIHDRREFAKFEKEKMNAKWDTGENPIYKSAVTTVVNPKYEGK

One experiment has as its system BALB/c mice. The experiment can be described thus: Adoptive transfer delayed type hypersensitivity in mice (oxazolone). The format is in vivo, mouse. The note with it: expanded study; versus vehicle alone. As for the experimental part:
An adoptive transfer delayed-type hypersensitivity murine model has been developed using splenic T cells primed to oxazolone. This model is described in Elices et al., Clin. Exp. Rheum., 11(Suppl. 8):577-580 (1993), whose procedures were followed here.
Thus, BALB/c mice were shaved on the belly and painted (50 μl on the belly and 5 μl on each paw) with three percent oxazolone in acetone/olive oil (4:1) at days zero and 1. At day 5, the mice were sacrificed, their spleens removed, and splenic T cells were obtained via nylon wool columns.
Normal saline or saline containing 25×10^6 /animal of the oxazolone-immune T cells were separately injected into naive mice. The mice were then challenged by painting 10 μl of 2 percent oxazolone onto one ear each. All procedures were carried out under sterile conditions and in endotoxin-free buffers.
Prior to challenge or saline injection, the mice were implanted with pumps that subcutaneously administered normal saline, normal saline containing the compound, Compound ID No. 896.52, N-phenylacetyl-Leu-Asp-Phe-D-Pro-NH2, or normal saline containing a compound with a scrambled sequence continually at 6 mg/kg/day for a 24-hour time period. The swelling diameter at the site of challenge or saline injection was measured with a microcaliper 24 hours thereafter.
An expanded study was carried out as described above except that a scrambled compound control was not used as a control for further inhibitor compounds of Table 1 with larger groups of mice. Statistical analyses were carried out versus injection of vehicle alone.
Regarding `CC(C)C[C@H](NC(=O)Cc1ccccc1)C(=O)N[C@@H](CC(=O)O)C(=O)N[C@@H](Cc1ccccc1)C(=O)N1CCC(O)CC1` [1070.02, .phi.Ac--Leu--Asp--Phe-4-hydroxpiperidinamide], the “Percent Inhibition (post-challenge swelling)” value was 29%. The same measure, in the same setting: next, `CC(C)C[C@H](NC(=O)Cc1ccccc1)C(=O)N[C@@H](CC(=O)O)C(=O)N[C@@H](Cc1ccccc1)C(=O)N1CCN(CC(=O)O)CC1` [1111.06, .phi.Ac--Leu--Asp--Phe-4-N(carboxymethyl)piperazinamide]: 30%.

The subject of a further experiment is New Zealand white rabbits. In words: Treatment of asthmatic rabbits (house dust mite antigen challenge, crossover). The note with it: FIG. 4A; 100 mg/kg nebulizer. In kind it is in vivo, rabbit. As for the experimental part:
Six New Zealand white rabbits were immunized with house dust mite antigen from birth through four months of age. Upon immunization, three rabbits received a single nebulizer administration of the inhibitor compound, Compound ID No. 1051.01, N-phenylacetyl-Leu-Asp-Phe-morpholinamide in aqueous 50 percent ethanol as diluent in an amount of 100 mg/kg, and the other three received diluent alone. All of the rabbits were challenged with house dust mite antigen about 15-30 minutes after administration of the compound, with those animals not receiving compound serving as controls.
Once immunized and challenged, the inflammatory state subsides to a basal level within about three weeks. The three animals used as controls were thereafter used as subjects for receipt of an inhibitor compound, and the three rabbits that initially received the compound can serve as controls.
Such a crossover study was done here. […]
Initial pulmonary function, measured by dynamic compliance (Cdyn) and lung resistance (RL), and bronchoalveolar lavage (BAL) to obtain an effector cell count, here eosinophils, were conducted prior to administration of the compound or diluent for both portions of this crossover study. […]
In the case of `CC(C)C[C@H](NC(=O)Cc1ccccc1)C(=O)N[C@@H](CC(=O)O)C(=O)N[C@@H](Cc1ccccc1)C(=O)N1CCOCC1` [1051.01, N-phenylacetyl-Leu-Asp-Phe-morpholinamide] (PhAc-Leu-Asp-Phe-Morpholide), the “Cdyn value over six hours after challenge” value is “stayed at about the initial value”.

The experiment is the same for the next values; noted with them: FIG. 4B; 100 mg/kg nebulizer.
As to `CC(C)C[C@H](NC(=O)Cc1ccccc1)C(=O)N[C@@H](CC(=O)O)C(=O)N[C@@H](Cc1ccccc1)C(=O)N1CCOCC1` [1051.01, N-phenylacetyl-Leu-Asp-Phe-morpholinamide] (PhAc-Leu-Asp-Phe-Morpholide), the “RL values over six hours after challenge” value is “remained between the initial value and about 200% of that value”.

Another experiment addresses VLA-4 (Homo sapiens, UniProt P05556+P13612). The experiment can be described thus: In vitro binding assay: 51Cr-labeled Jurkat cells to solid phase-bound CS-1 compound (SEQ ID NO:1). The format is cell-based. Also noted: inflammatory cells that contain the VLA-4 receptor [Jurkat cells; host or cells: Jurkat cells (human T lymphoblastic line). The note with it: before the prodrug compound is enzymatically converted to an active form; relative to SEQ ID NO:3 = 1. As for the experimental part:
Binding inhibition is measured here as a concentration of compound that inhibits one-half the binding between a standard number of Jurkat cells and a standard amount of CS-1 compound bound to the surface of a microtiter plate well. Those concentrations are conveniently expressed as IC50 values, smaller numbers indicating a lower concentration required to inhibit 50 percent binding and therefore greater potency. Further specifics of this assay are provided hereinafter.
Jurkat cells (ATCC TIB 152), a human T lymphoblastic line, labeled with ^51 chromium were used to assay in vitro binding inhibition provided by various compounds discussed herein.
The plates were prepared as follows: The 25-mer CS-1 compound (SEQ ID NO:1) dissolved at 0.5-1 μg/ml in a buffer of 0.1M NaHCO3 at pH 9.5 that also contained 10 μg/ml of bovine serum albumin (BSA) or a conjugate of the CS-1 compound linked to ovalbumin (CS-1-OVA) dissolved at 1-2.5 μg/ml in the same buffer was used as the substrate. Each well of the microtiter plates was coated with 50 μl of substrate or buffer alone for controls. The wells were permitted to dry out completely and were then rinsed twice with PBS at pH 7.4. Non-specific binding sites of each well were then blocked using 200 μl per well of RPMI/1 percent BSA for two hours at room temperature.
Jurkat cells (3-5×10^6 cells) were placed into a 15 ml Falcon™ round-bottom tube with a cap. The tube was centrifuged, and the extra medium was then removed.
Two hundred microliters of a ^51 Cr labeling solution were added to the centrifuged cells and maintained in contact with the cells for 90-120 minutes in a warm room. […] Longer contact times provide a greater amount of labeling but lower cell viability.
The labeled cells are washed with (i) complete medium, (ii) 1 mM EDTA/PBS and then (iii) RPM1/1 percent BSA free of serum components. The cells are centrifuged after each washing. The cells are finally resuspended in serum-free RPMI/1 percent BSA at a concentration of 1×10^6 viable cells/ml, which provides a concentration that is diluted by one-half in the assay.
Inhibitor compounds are prepared as stock solutions at 20 mg/ml in DMSO in 1.5 ml cryogenic screwcap vials, and were stored at -70° C. Using Flow™ round-bottom or V-bottom microtiter plates, the inhibitor compounds were prepared at twice the assay concentration in RPMI/1 percent BSA at 60 μl/well.
Four initial dilutions were typically used.
The ^51 Cr-labeled cells ([…] at 60 μl/well) were then admixed with the diluted compound solutions. The admixtures were maintained at room temperature (about 22° C.) for 30 minutes.
One hundred microliters of each inhibitor compound/cell admixture were transferred to the substrate-coated wells. This was done in triplicate for each dilution. The resulting plates were incubated for 30 minutes at 37° C. and then washed gently three times with RPMI/1 percent BSA at 200 μl/well. Binding was observed microscopically, particularly after the second wash.
The bound cells were then lysed by the addition of a 0.5 percent solution of sodium dodecylsulfate in water at 100 μl/well. The resulting solutions were then processed for counting and calculation of IC50 values following usual procedures.
The data of Table 1 are normalized to the binding of SEQ ID NO: 3. […] Multiple assays for the same compound were averaged.
In the case of `CC(C)C[C@H](NC(=O)Cc1ccccc1)C(=O)N[C@@H](CC(=O)OCC(=O)OCc1ccccc1)C(=O)N[C@@H](Cc1ccccc1)C(=O)N1CCC[C@@H]1C(N)=O` [1067.01] (PhAc-LD(X7)F[dP]-NH2), the “Relative Potency (prodrug compound)” value is “.97”.

With `CC(C)C[C@H](NC(=O)Cc1ccccc1)C(=O)N[C@@H](CC(=O)OCC(=O)O)C(=O)N[C@@H](Cc1ccccc1)C(=O)N1CCC[C@@H]1C(N)=O` [1067.02] (PhAc-LD(X6)F[dP]-NH2), the “Relative Potency (prodrug compound)” value is “.81”. `CCCCCCCCCCCCCCCCCCNC(=O)CCCCCNC(=O)[C@@H]1CCCN1C(=O)[C@H](Cc1ccccc1)NC(=O)[C@H](CC(=O)O)NC(=O)[C@H](CC(C)C)NC(=O)Cc1ccccc1` [1068.01, phenylacetyl-Leu-Asp-Phe-Pro-NH(CH2)5 C (O)NHC18 H37] (PhAc-LDFP[Ahx]-NHOctadecyl): the “Relative Potency (prodrug compound)” value is “.91”. Still for that read-out and setting: the value for `CCCCCCCCCCCCCCCCCC(=O)OC1CCN(C(=O)[C@H](Cc2ccccc2)NC(=O)[C@H](CC(=O)O)NC(=O)[C@H](CC(C)C)NC(=O)Cc2ccccc2)CC1` [1068.05] was 0.63. As for `CCCCCCCCCC(=O)OC1CCN(C(=O)[C@H](Cc2ccccc2)NC(=O)[C@H](CC(=O)O)NC(=O)[C@H](CC(C)C)NC(=O)Cc2ccccc2)CC1` [1068.06], the “Relative Potency (prodrug compound)” value is reported as “.63”.

Turning to `CC(C)C[C@H](NC(=O)Cc1ccccc1)C(=O)N[C@@H](CC(=O)OCc1ccccc1)C(=O)N[C@@H](Cc1ccccc1)C(=O)N1CCC[C@@H]1C(N)=O` [1068.07] (PhAc-LD(OBn)F[dP]-NH2), the “Relative Potency (prodrug compound)” value was 0.

Consider `CCCCCCCCCCOC(=O)C[C@H](NC(=O)[C@H](CC(C)C)NC(=O)Cc1ccccc1)C(=O)N[C@@H](Cc1ccccc1)C(=O)N1CCC[C@@H]1C(N)=O` [1068.09] (PhAc-LD(ODecyl)F[dP]-NH2), for which the “Relative Potency (prodrug compound)” value was determined as 0. Still for that read-out and setting: next, `CCCCCCCCCCCCOC(=O)C[C@H](NC(=O)[C@H](CC(C)C)NC(=O)Cc1ccccc1)C(=O)N[C@@H](Cc1ccccc1)C(=O)N1CCC[C@@H]1C(N)=O` [1068.10] (PhAc-LD(X5)F[dP]-NH2): 0. `CCCCCCCCCCCCCCOC(=O)C[C@H](NC(=O)[C@H](CC(C)C)NC(=O)Cc1ccccc1)C(=O)N[C@@H](Cc1ccccc1)C(=O)N1CCC[C@@H]1C(N)=O` [1068.11] (PhAc-LD(X1)F[dP]-NH2): the “Relative Potency (prodrug compound)” value is 0. The same measure, in the same setting: next, `CCCCCCCCCCCCCCCCCCOC(=O)C[C@H](NC(=O)[C@H](CC(C)C)NC(=O)Cc1ccccc1)C(=O)N[C@@H](Cc1ccccc1)C(=O)N1CCC[C@@H]1C(N)=O` [1068.12] (PhAc-LD(X8)F[dP]-NH2): 0; `CCN(CC)C(=O)COC(=O)C[C@H](NC(=O)[C@H](CC(C)C)NC(=O)Cc1ccccc1)C(=O)N[C@@H](Cc1ccccc1)C(=O)N1CCC[C@@H]1C(N)=O` [1068.13] (PhAc-LD(X4)F[dP]-NH2): 0. As for `CCOC(=O)C[C@H](NC(=O)[C@H](CC(C)C)NC(=O)Cc1ccccc1)C(=O)N[C@@H](Cc1ccccc1)C(=O)N1CCC[C@@H]1C(N)=O` [1190.01] (PhAc-LD(OEt)F[dP]-NH2), the “Relative Potency (prodrug compound)” value was found to be 0.

Staying with this experiment, now noted: binding inhibition potency (IC50) relative to standard compound of SEQ ID NO:3 = 1; about one-tenth or less assigned zero.
Turning to `CC(C)C[C@H](NC(=O)Cc1ccccc1)C(=O)N[C@@H](CC(=O)O)C(=O)NC1CCCCN(CC(N)=O)C1=O` (some centres unmarked) [1057.06], the “Relative Potency” value is listed as 97. For `CC(C)C[C@H](NC(=O)Cc1ccccc1)C(=O)N[C@@H](CC(=O)O)C(=O)N[C@@H](CCc1ccccc1)C(=O)N1CCC[C@@H]1C(N)=O` [1062.03] (PhAc-LD[hPhe][dP]-NH2), the “Relative Potency” value came out at 93.93. Consider `CC(C)C[C@H](NC(=O)Cc1ccccc1)C(=O)N[C@@H](CC(=O)O)C(=O)N[C@@H](Cc1ccccc1)C(=O)N1CCSCC1` [1111.02], for which the “Relative Potency” value is 450. On the same count and under the same terms, next, `CC(C)C[C@H](NC(=O)Cc1ccccc1)C(=O)N[C@@H](CC(=O)O)C(=O)N[C@@H](Cc1ccccc1)C(=O)N1CCN(CC(=O)O)CC1` [1111.06, .phi.Ac--Leu--Asp--Phe-4-N(carboxymethyl)piperazinamide]: 2600. Still for that read-out and setting: next, `CC(C)C[C@H](NC(=O)Cc1ccccc1)C(=O)N[C@@H](CC(=O)O)C(=O)N[C@@H](Cc1ccccc1)C(=O)N1CCN(CCOCCO)CC1` [1111.07]: 510; `CC(C)C[C@H](NC(=O)Cc1ccccc1)C(=O)N[C@@H](CC(=O)O)C(=O)N(C)[C@@H](Cc1ccccc1)C(=O)N1CCC[C@@H]1C(N)=O` [1190.05] (PhAc-LD[NMeF][dP]-NH2): 0; `CC(C)C[C@H](NC(=O)Cc1ccccc1)C(=O)N(C)[C@@H](CC(=O)O)C(=O)N[C@@H](Cc1ccccc1)C(=O)N1CCC[C@@H]1C(N)=O` [1190.06] (PhAc-L[NMeD]F[dP]-NH2): 0.
